Assay results taken from patent US20050054587A1, “Novel therapeutic indication of azithromycin for treatment of non-infective inflamatory diseases” (priority 2001, published 2005).

How the values were obtained:
Format in all cases: in vivo, human
[1] = system: β-glucuronidase; experiment: β-glucuronidase activity in neutrophil (PMN) lysates, fluorimetric; settings: healthy volunteers; for β-glucuronidase (PMN): azithromycin 3×500 mg, baseline 4.12 ± 2.7
Procedure: (§1) A trial on healthy volunteers was conducted and the influence of azithromycin given in a dosage of 3×500 mg on selected inflammation-relevant parameters was followed up.
(§2) Each subject received two standard 250 mg capsules of azithromycin (Sumamed®, PLIVA Zagreb) on three consecutive days. Immediately before the treatment and 2 h and 30 min, 24 h and 28 days after the third and last dose of azithromycin blood was collected from the cubital vein into EDTA-containing tubes. Aliquots were taken for cell counting, smear preparation, polymorphonuclear cell and serum isolation.
(§3) Glycosidases are enzymes that catalyse hydrolysis of glycosidic bonds of oligosacharides and other glycosides. They are specific to the glycosidic part of substrate molecule. N-acetyl-β-D-glucosaminidase (NAGA) and β-glucuronidase are such enzymes. They are lysosomal enzymes, both located in azurophilic (primary; peroxidase-positive) granules of neutrophils. Since degranulation of neutrophils is present during inflammation, many authors choose these enzymes as markers of degranulation and for estimation of neutrophil reactivity. The catalytic concentration of both enzymes in serum and in neutrophil lysates was determined using the fluorimetric method described by O'Brien et al. (New Engl. J. Med. (1970) 283: 15-20) for NAGA and Glaser & Sly (J. Lab. Clin. Med. (1973) 82: 969) for β-glucuronidase.

[2] = system: neutrophils; experiment: fMLP-stimulated neutrophil oxidative burst, cytochrome c assay; settings: healthy volunteers, azithromycin 3×500 mg, baseline 0.020 ± 0,014, absorbances 550 nm and 540 nm
Procedure: as §1, §2
Neutrophils were incubated with cytochrome c and stimulated with fMLP (Cohen and Chovaniec, 1978, J. Clin. Invest. 61: 1081-1087). Absorbances at 550 nm and 540 nm were recorded and the results were expressed as delta A.

[3] = system: stimulated neutrophils; experiment: fMLP-stimulated neutrophil oxidative burst, luminol chemiluminescence; settings: healthy volunteers, azithromycin 3×500 mg, baseline 29335 ± 1957
Procedure: as §1, §2
The generation of reactive oxygen species by activated cells is frequently determined by the measurement of chemiluminescence (CL). The radical species formed react with a photon-producing chemical (e.g. Luminol) and the resulting light emission is measured with a photocell. Chemiluminescence is detectable as a result of the stimulation (e.g. fMLP) of leucocytes and is a measure of their oxidative cytotoxic activity (Allen et al., Biochem. Biophys. Res. Commun. (1972), 47: 679).
The results of the study presented in Table 1 show, that azithromycin inhibits chemiluminescence generated from stimulated neutrophils isolated from the blood of humans treated with azithromycin.

[4] = system: sVCAM; experiment: Serum sVCAM concentration, ELISA; settings: healthy volunteers, azithromycin 3×500 mg, baseline 13.59 ± 2.90
Procedure: as §1, §2
For quantitative determination of serum concentration of human sVCAM, an ELISA kit was used (R&D systems, UK)

[5] = system: IL-8; experiment: Serum IL-8 concentration, ELISA; settings: healthy volunteers, azithromycin 3×500 mg, baseline 29.47 ± 15.44
Procedure: as §1, §2
Cytokine and chemokine concentrations were determined using ELISA kits. […] Rapid and pronounced decreases in the plasma concentrations of the neutrophil-stimulating chemokine, IL-8, and GR0-α were observed 2 h and 30 min and 24 h after the last dose of azithromycin (Table 1. The concentration of IL-8 returned essentially to baseline after 28 days, while that of GRO-[…] was decreased at this time.

[6] = system: N-acetyl-β-D-glucosaminidase (NAGA); experiment: NAGA activity in neutrophil (PMN) lysates, fluorimetric; settings: healthy volunteers; for NAGA (PMN): azithromycin 3×500 mg, baseline 4.15 ± 01.6
Procedure: as §1, §2, §3

[7] = system: myeloperoxidase (MPO); experiment: Myeloperoxidase cytochemical score in blood smear neutrophils, healthy volunteer trial; settings: healthy volunteers, azithromycin 3×500 mg, baseline 337 ± 29, score 0-400
Procedure: as §1, §2
The activity of MPO was assessed from the intensity of staining of neutrophils in blood smears and in cell lysates by ELISA. After fixation in ethanol-formaldehyde, smears were incubated in a substrate solution containing hydrogen peroxide and benzidine (SIGMA). After incubation, smears were counterstained with Giemsa solution. MPO value positivity_of 100 granulocytes was evaluated and scored from 0 to 4+ on the basis of the intensity of the precipitated dye in cytoplasm. Therefore, the value of the score could be from 0 to 400. Normal values of score range (290-390) were taken from this study before azithromycin administration. MPO activity was also evaluated on the digital image of smear taken with a digital camera under the high magnification (×1000) of light microscope. MPO activities in blood smear neutrophils decreased from 2 h and 30 min to 24 h after the last azithromycin dose and returned to baseline after 28 days (Table 1). The change in neutrophil enzyme protein followed the same pattern as that in intracellular enzyme activity, decreasing from 2 h and 30 min to 24 h after the last dose of azithromycin and returning to baseline after 28 days. Both methodological approaches of MPO determination confirmed each other. Degranulation presented with lower MPO neutrophil density determined_with cytochemistry was associated with lower MPO ELISA concentrations in neutrophil lysates.

With `CC[C@H]1OC(=O)[C@H](C)[C@@H](O[C@H]2C[C@@](C)(OC)[C@@H](O)[C@H](C)O2)[C@H](C)[C@@H](O[C@@H]2O[C@H](C)C[C@H](N(C)C)[C@H]2O)[C@](C)(O)C[C@@H](C)CN(C)[C@H](C)[C@@H](O)[C@]1(C)O` [azithromycin, 9-deoxo-9-dihydro-9a-methyl-9a-aza-9a-homoerythromycin A] the “decrease of activities of β-glucuronidase in PMN compared to initial values” ([1]; 3×500 mg, 24 hours) was “about 50%”, the “β-glucuronidase activity in PMN higher compared to the initial values” ([1]; 3×500 mg, 28 days later) was “about 300%” and the “decrease of activities of β-glucuronidase in PMN compared to initial values” ([1]; 3×500 mg, after 2 h and 30 min) was “about 20%”. For the same molecule, the “β-glucuronidase (PMN)” value ([1]; 2 h and 30 min after last dose) was 3.21 ± 2.3 nmol × 10^−6 cells × min^−1, the “β-glucuronidase (PMN)” value ([1]; 24 hours after last dose) was 1.58 ± 0.4 nmol × 10^−6 cells × min^−1 and the “β-glucuronidase (PMN)” value ([1]; 28 days after last dose) was 15.37 ± 11.4 nmol × 10^−6 cells × min^−1. For the same molecule, the “OXIDATIVE BURST (PMN) fMLP-cytochrom c” value ([2]; 2 h and 30 min after last dose) was 0,007 ± 0.015 ΔA, the “OXIDATIVE BURST (PMN) fMLP-cytochrom c” value ([2]; 24 hours after last dose) was −0,018 ± 0.010 ΔA and the “OXIDATIVE BURST (PMN) fMLP-cytochrom c” value ([2]; 28 days after last dose) was −0,0011 ± 0,0010 ΔA. For the same molecule, the “OXIDATIVE BURST (PMN) fMLP-luminol” value ([3]; 2 h and 30 min after last dose) was 14774 ± 1175 A.U, the “OXIDATIVE BURST (PMN) fMLP-luminol” value ([3]; 24 hours after last dose) was 5053 ± 3804 A.U and the “OXIDATIVE BURST (PMN) fMLP-luminol” value ([3]; 28 days after last dose) was 9879 ± 13880 A.U. For the same molecule, the “sV-CAM (serum)” value ([4]; 2 h and 30 min after last dose) was 12.21 ± 4.12 ng/mL, the “sV-CAM (serum)” value ([4]; 24 hours after last dose) was 10.29 ± 2.12 ng/mL and the “sV-CAM (serum)” value ([4]; 28 days after last dose) was 10.74 ± 2.05 ng/mL. For the same molecule, the “IL-8 (serum)” value ([5]; 2 h and 30 min after last dose) was 10.61 ± 3.81 pg/mL, the “IL-8 (serum)” value ([5]; 24 hours after last dose) was 14.60 ± 10.75 pg/mL and the “IL-8 (serum)” value ([5]; 28 days after last dose) was 23.03 ± 19.72 pg/mL. For the same molecule, the “decrease in NAGA in granulocytes” value ([6]; 3×500 mg, 2 h and 30 min after the last dose, vs initial values) was “about 70%”, the “NAGA activity in PMN lower compared to initial values” ([6]; 3×500 mg, 24 hours after the last dose) was “about 40%” and the “NAGA activity in PMN increase from the 2 h and 30 min value” ([6]; 3×500 mg, 24 hours later) was “about 30%”. The “activity of NAGA (PMN) increased over the initial values” ([6]; 3×500 mg, after 28 days) was 40%, the “NAGA (PMN)” value ([6]; 2 h and 30 min after last dose) was 1.13 ± 0.72 nmol × 10^−6 cells × min^−1 and the “NAGA (PMN)” value ([6]; 24 hours after last dose) was 2.62 ± 1.6 nmol × 10^−6 cells × min^−1. For the same molecule, the “NAGA (PMN)” value ([6]; 28 days after last dose) was 5.95 ± 3.7 nmol × 10^−6 cells × min^−1, the “myeloperoxidase (score)” value ([7]; 2 h and 30 min after last dose) was 326 ± 26 and the “myeloperoxidase (score)” value ([7]; 24 hours after last dose) was 315 ± 22. For the same molecule, the “myeloperoxidase (score)” value ([7]; 28 days after last dose) was 347 ± 18.
